In US10112899B2 (ViiV HEALTHCARE UK LIMITED, priority 2014, dated 2018):
pIC50: −log10 of the molar value.

Tested on: HIV in the HTLV-1 transformed cell line MT-4
Test: organism not typed
Assay type: cell-based
Conditions: MT4, 96 h, MT-4 cells; luciferase/cell titer glo readout after 96 hours; 10 point dose response

Compound	pIC50
Cc1ccc(C)c(C(=O)N2Cc3c(C)c(-c4cc(F)c5c(c4C)CCCO5)c([C@H](OC(C)(C)C)C(=O)O)c(C)c3C2)c1 (atropisomer, axis not shown; (M)) [Example 157, (S)-2-(tert-butoxy)-2-(2-(2,5-dimethylbenzoyl)-6-((M)-8-fluoro-5-methylchroman-6-yl)-4,7-dimethylisoindolin-5-yl)acetic acid]	8.52
Cc1c(-c2c(C)c3c(c(C)c2[C@H](OC(C)(C)C)C(=O)O)CN(C(=O)c2ccccc2)C3)cc(F)c2c1CCCO2 (atropisomer, axis not shown; (M)) [Example 158, (S)-2-(2-benzoyl-6-((M)-8-fluoro-5-methylchroman-6-yl)-4,7-dimethylisoindolin-5-yl)-2-(tert-butoxy)acetic acid]	8.70
COc1cccc(C(=O)N2Cc3c(C)c(-c4cc(F)c5c(c4C)CCCO5)c([C@H](OC(C)(C)C)C(=O)O)c(C)c3C2)c1 (atropisomer, axis not shown; (M)) [Example 159, (S)-2-(tert-butoxy)-2-(6-((M)-8-fluoro-5-methylchroman-6-yl)-2-(3-methoxybenzoyl)-4,7-dimethylisoindolin-5-yl)acetic acid]	8.70
COc1ccc(C)c(C(=O)N2Cc3c(C)c(-c4cc(F)c5c(c4C)CCCO5)c([C@H](OC(C)(C)C)C(=O)O)c(C)c3C2)c1 (atropisomer, axis not shown; (M)) [Example 160, (S)-2-(tert-butoxy)-2-(6-((M)-8-fluoro-5-methylchroman-6-yl)-2-(5-methoxy-2-methylbenzoyl)-4,7-dimethylisoindolin-5-yl)acetic acid]	8.40
Cc1c(-c2c(C)c3c(c(C)c2[C@H](OC(C)(C)C)C(=O)O)CN(C(=O)c2cccc4c2CCC4)C3)cc(F)c2c1CCCO2 (atropisomer, axis not shown; (M)) [Example 161, (S)-2-(tert-butoxy)-2-(2-(2,3-dihydro-1H-indene-4-carbonyl)-6-((M)-8-fluoro-5-methylchroman-6-yl)-4,7-dimethylisoindolin-5-yl)acetic acid]	8.52
Cc1c(-c2c(C)c3c(c(C)c2[C@H](OC(C)(C)C)C(=O)O)CN(C(=O)c2cccc4c2OC(F)(F)O4)C3)cc(F)c2c1CCCO2 (atropisomer, axis not shown; (M)) [Example 162, (S)-2-(tert-butoxy)-2-((M)-2-(2,2-difluorobenzo[d][1,3]dioxole-4-carbonyl)-6-(8-fluoro-5-methylchroman-6-yl)-4,7-dimethylisoindolin-5-yl)acetic acid]	8.70
Cc1c(-c2c(C)c3c(c(C)c2[C@H](OC(C)(C)C)C(=O)O)CN(C(=O)c2cccc4ccccc24)C3)cc(F)c2c1CCCO2 (atropisomer, axis not shown; (M)) [Example 168, (S)-2-((M)-2-(1-naphthoyl)-6-(8-fluoro-5-methylchroman-6-yl)-4,7-dimethylisoindolin-5-yl)-2-(tert-butoxy)acetic acid]	7.96
Cc1c(-c2c(C)c3c(c(C)c2[C@H](OC(C)(C)C)C(=O)O)CN(C(=O)c2cccc4ccoc24)C3)cc(F)c2c1CCCO2 (atropisomer, axis not shown; (M)) [Example 169, (S)-2-((M)-2-(benzofuran-7-carbonyl)-6-(8-fluoro-5-methylchroman-6-yl)-4,7-dimethylisoindolin-5-yl)-2-(tert-butoxy)acetic acid]	8.70
Cc1c(-c2c(C)c3c(c(C)c2[C@H](OC(C)(C)C)C(=O)O)CN(C(=O)c2cc(F)cc(F)c2)C3)cc(F)c2c1CCCO2 (atropisomer, axis not shown; (M)) [Example 170, (S)-2-(tert-butoxy)-2-((M)-2-(3,5-difluorobenzoyl)-6-(8-fluoro-5-methylchroman-6-yl)-4,7-dimethylisoindolin-5-yl)acetic acid]	8.70
Cc1c(-c2c(C)c3c(c(C)c2[C@H](OC(C)(C)C)C(=O)O)CN(C(=O)c2ccc(F)c(Cl)c2)C3)cc(F)c2c1CCCO2 (atropisomer, axis not shown; (M)) [Example 171, (S)-2-(tert-butoxy)-2-((M)-2-(3-chloro-4-fluorobenzoyl)-6-(8-fluoro-5-methylchroman-6-yl)-4,7-dimethylisoindolin-5-yl)acetic acid]	8.70
Cc1c(Cl)cccc1C(=O)N1Cc2c(C)c(-c3cc(F)c4c(c3C)CCCO4)c([C@H](OC(C)(C)C)C(=O)O)c(C)c2C1 (atropisomer, axis not shown; (M)) [Example 172, (S)-2-(tert-butoxy)-2-((M)-2-(3-chloro-2-methylbenzoyl)-6-(8-fluoro-5-methylchroman-6-yl)-4,7-dimethylisoindolin-5-yl)acetic acid]	8.15
Cc1c(-c2c(C)c3c(c(C)c2[C@H](OC(C)(C)C)C(=O)O)CN(C(=O)c2cc(F)c(F)c(F)c2)C3)cc(F)c2c1CCCO2 (atropisomer, axis not shown; (M)) [Example 173, (S)-2-(tert-butoxy)-2-((M)-6-(8-fluoro-5-methylchroman-6-yl)-4,7-dimethyl-2-(3,4,5-trifluorobenzoyl)isoindolin-5-yl)acetic acid]	8.52
Cc1c(-c2c(C)c3c(c(C)c2[C@H](OC(C)(C)C)C(=O)O)CN(C(=O)c2ccc(F)cc2)C3)cc(F)c2c1CCCO2 (atropisomer, axis not shown; (M)) [Example 174, (S)-2-(tert-butoxy)-2-((M)-6-(8-fluoro-5-methylchroman-6-yl)-2-(4-fluorobenzoyl)-4,7-dimethylisoindolin-5-yl)acetic acid]	8.40
Cc1c(-c2c(C)c3c(c(C)c2[C@H](OC(C)(C)C)C(=O)O)CN(C(=O)c2cc(F)c(Cl)c(F)c2)C3)cc(F)c2c1CCCO2 (atropisomer, axis not shown; (M)) [Example 175, (S)-2-(tert-butoxy)-2-((M)-2-(4-chloro-3,5-difluorobenzoyl)-6-(8-fluoro-5-methylchroman-6-yl)-4,7-dimethylisoindolin-5-yl)acetic acid]	8.30
Cc1c(-c2c(C)c3c(c(C)c2[C@H](OC(C)(C)C)C(=O)O)CN(C(=O)c2cccc(F)c2F)C3)cc(F)c2c1CCCO2 (atropisomer, axis not shown; (M)) [Example 176, (S)-2-(tert-butoxy)-2-((M)-2-(2,3-difluorobenzoyl)-6-(8-fluoro-5-methylchroman-6-yl)-4,7-dimethylisoindolin-5-yl)acetic acid]	8.40
Cc1ccc(F)cc1C(=O)N1Cc2c(C)c(-c3cc(F)c4c(c3C)CCCO4)c([C@H](OC(C)(C)C)C(=O)O)c(C)c2C1 (atropisomer, axis not shown; (M)) [Example 177, (S)-2-(tert-butoxy)-2-((M)-2-(5-fluoro-2-methylbenzoyl)-6-(8-fluoro-5-methylchroman-6-yl)-4,7-dimethylisoindolin-5-yl)acetic acid]	8.70
Cc1cc(F)cc(C(=O)N2Cc3c(C)c(-c4cc(F)c5c(c4C)CCCO5)c([C@H](OC(C)(C)C)C(=O)O)c(C)c3C2)c1 (atropisomer, axis not shown; (M)) [Example 178, (S)-2-(tert-butoxy)-2-((M)-2-(3-fluoro-5-methylbenzoyl)-6-(8-fluoro-5-methylchroman-6-yl)-4,7-dimethylisoindolin-5-yl)acetic acid]	8.70
